Measurements reported in patent US20240400575A1, “POLYCYCLIC COMPOUNDS AS SOLUBLE EPOXIDE HYDROLASE INHIBITORS” (Universitat De Barcelona, priority 2018, published 2024).

molecular target: T1, recombinant human sEH (hsEH) (Homo sapiens, UniProt P34913); experiment: In vitro determination of sEH inhibition activity (fluorescent assay, PHOME substrate); assay type: biochemical; conditions: fluorescence, Bis/Tris HCl pH 7.0 with 0.1 mg/mL BSA
T1 construct: purchased Cayman Chemical 10011669
T1 sequence (P34913 1-555): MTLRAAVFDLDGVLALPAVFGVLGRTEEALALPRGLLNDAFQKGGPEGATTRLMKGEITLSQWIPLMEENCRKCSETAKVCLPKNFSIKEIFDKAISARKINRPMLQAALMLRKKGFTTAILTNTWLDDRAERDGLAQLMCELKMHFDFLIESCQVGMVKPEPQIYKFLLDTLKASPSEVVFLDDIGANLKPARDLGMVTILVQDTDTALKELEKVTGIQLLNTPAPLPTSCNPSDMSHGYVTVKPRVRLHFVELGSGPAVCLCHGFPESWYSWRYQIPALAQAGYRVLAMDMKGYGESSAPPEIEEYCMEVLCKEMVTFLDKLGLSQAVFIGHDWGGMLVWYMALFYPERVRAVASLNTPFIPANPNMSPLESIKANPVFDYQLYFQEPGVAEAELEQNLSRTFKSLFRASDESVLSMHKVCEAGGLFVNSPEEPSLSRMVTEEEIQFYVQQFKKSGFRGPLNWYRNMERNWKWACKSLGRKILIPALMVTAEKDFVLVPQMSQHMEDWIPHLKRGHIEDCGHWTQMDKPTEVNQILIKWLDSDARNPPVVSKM
Method: Add 5 μL of DMSO to background and positive control wells, and then add 5 μL of inhibitor solution in inhibitor wells. Add 5 μL of the solution of hsEH to the positive control and inhibitor wells and stir the mixture. Prepare a 1/21 dilution of the solution of PHOME with assay buffer according to final volume required, and then add 105 μL of each well. Shake carefully the plate for 10 seconds and incubate for 5 minutes at room temperature. […] The intensity of fluorescence was used to analyze and calculate the IC50 values. Results were obtained by regression analysis from at least three data points in a linear region of the curve. IC50 values are average of minimum three independent replicates.

IC50, 100 to 1000 nM:
CC12CC3CC(NC(=S)Nc4ccc(C(F)(F)F)cc4)(CC(C1)c1ccccc13)C2 [Example 35, 1-(9-methyl-5,6,8,9,10,11-hexahydro-7H-5,9:7,11-dimethanobenzo[9]annulen-7-yl)-3-(4-(trifluoromethyl)phenyl)thiourea]
CC(=O)N1CCC(NC(=O)NC23CC4CC(C)(CC(C2)c2ccccc24)O3)CC1 [Example 36, 1-(1-acetylpiperidin-4-yl)-3-(5-methyl-1,5,6,7-tetrahydro-1,5:3,7-dimethanobenzo[e]oxonin-3(2H)-yl)urea]
CC(=O)N1CCC(CC(=O)NC23CC4CC(C)(CC(C2)c2ccccc24)C3)CC1 [Example 57, 2-(1-acetylpiperidin-4-yl)-N-(9-methyl-5,6,8,9,10,11-hexahydro-7H-5,9:7,11-dimethanobenzo[9]annulen-7-yl)acetamide]
CC12CC3CC(NC(=O)CC4CCN(Cc5ccccc5)CC4)(CC(C1)c1ccccc13)C2 [Example 60, 2-(1-benzylpiperidin-4-yl)-N-(9-methyl-5,6,8,9,10,11-hexahydro-7H-5.9:7,11-dimethanobenzo[9]annulen-7-yl)acetamide]
COC12CC3CC(NC(=O)Nc4nc5ccccc5s4)(CC(C1)c1ccccc13)C2 [Example 73, 1-(benzo[d]thiazol-2-yl)-3-(9-methoxy-5,6,8,9,10,11-hexahydro-7H-5,9:7,11-dimethanobenzo[9]annulen-7-yl)urea]

IC50, < 10 nM:
CC12CC3CC(NC(=O)NC4CCC(Oc5ccc(C(=O)O)cc5)CC4)(CC(C1)c1ccccc13)C2 (centres unmarked) [Example 44, 4-(((1r,4r)-4-(3-(9-methyl-5,6,8,9,10,11-hexahydro-7H-5,9:7,11-dimethanobenzo[9]annulen-7-yl)ureido)cyclohexyl)oxy)benzoic acid]
CC12CC3CC(NC(=O)NC4CCN(Cc5ccccc5)CC4)(CC(C1)c1ccccc13)C2 [Example 48, 1-(1-benzylpiperidin-4-yl)-3-(9-methyl-5,6,8,9,10,11-hexahydro-7H-5,9:7,11-dimethanobenzo[9]annulen-7-yl)urea]
CC(=O)c1ccc2c(c1)C1CC3(C)CC2CC(NC(=O)NC2CCN(C(C)=O)CC2)(C1)C3 (centres unmarked) [Example 51, 1-(2-acetyl-9-methyl-5,6,8,9,10,11-hexahydro-7H-5,9:7,11-dimethano-benzo[9]annulen-7-yl)-3-(1-acetylpiperidin-4-yl)urea]
CC(=O)N1CCC(NC(=O)NC23CC4CC(C)(CC(C2)c2cc([N+](=O)[O-])ccc24)C3)CC1 (centres unmarked) [Example 52, 1-(1-acetylpiperidin-4-yl)-3-(9-methyl-2-nitro-5,6,8,9,10,11-hexahydro-7H-5,9:7,11-dimethanobenzo[9]annulen-7-yl)urea]
CC12CC3CC(NC(=O)Nc4ccc(F)c(F)c4F)(CC(C1)c1ccccc13)C2 [Example 58, 1-(9-methyl-6,7,8,9,10,11-hexahydro-5H-5,9:7,11-dimethanobenzo[9]annulen-7-yl)-3-(2,3,4-trifluorophenyl)urea]
CC(=O)c1ccc(N2CCC(NC(=O)NC34CC5CC(C)(CC(C3)c3ccccc35)C4)CC2)cc1 [Example 64, 1-(1-(4-acetylphenyl)piperidin-4-yl)-3-(9-methyl-5,6,8,9,10,11-hexahydro-7H-5,9:7,11-dimethanobenzo[9]annulen-7-yl)urea]
CC12CC3CC(NC(=O)NC4CCN(C(=O)c5ccccc5F)CC4)(CC(C1)c1ccccc13)C2 [Example 66, 1-(1-(2-fluorobenzoyl)piperidin-4-yl)-3-(9-methyl-5,6,8,9,10,11-hexa-hydro-7H-5,9:7,11-dimethanobenzo[9]annulen-7-yl)urea]
CC12CC3CC(NC(=O)NC4CC5CCC(C4)N5Cc4ccccc4)(CC(C1)c1ccccc13)C2 [Example 67, 1-((1R,3s,5S)-8-benzyl-8-azabicyclo[3.2.1]octan-3-yl)-3-(9-methyl-5,6,8.9.10,11-hexahydro-7H-5.9:7,11-dimethanobenzo[9]annulen-7-yl)urea]
CC(=O)N1CCC(NC(=O)NC23CC4CC(C)(CC(C2)c2cc(F)ccc24)C3)CC1 (centres unmarked) [Example 68, 1-(1-acetylpiperidin-4-yl)-3-(2-fluoro-9-methyl-5,6,8,9,10,11-hexahydro-7H-5,9:7,11-dimethanobenzo[9]annulen-7-yl)urea]
COc1ccc2c(c1)C1CC3(C)CC2CC(NC(=O)NC2CCN(C(C)=O)CC2)(C1)C3 (centres unmarked) [Example 69, 1-(1-acetylpiperidin-4-yl)-3-(2-methoxy-9-methyl-5,6,8,9,10,11-hexa-hydro-7H-5.9:7,11-dimethanobenzo[9]annulen-7-yl)urea]
CC(=O)N1CCC(NC(=O)NC23CC4CC(C)(CC(C2)c2c(F)cccc24)C3)CC1 (centres unmarked) [Example 70, 1-(1-acetylpiperidin-4-yl)-3-(1-fluoro-9-methyl-5,6,8,9,10,11-hexahydro-7H-5,9:7,11-dimethanobenzo[9]annulen-7-yl)urea]
COc1cc2c(cc1OC)C1CC3(C)CC2CC(NC(=O)NC2CCN(C(C)=O)CC2)(C1)C3 [Example 71, 1-(1-acetylpiperidin-4-yl)-3-(2,3-dimethoxy-9-methyl-5,6,8,9,10,11-hexahydro-7H-5.9:7,11-dimethanobenzo[9]annulen-7-yl)urea]
CC(=O)N1CCC(NC(=O)NC23CC4CC(F)(CC(C2)c2c(F)cccc24)C3)CC1 (centres unmarked) [Example 74, 1-(1-acetylpiperidin-4-yl)-3-(1,9-difluoro-5,6,8,9,10,11-hexahydro-7H-5,9:7,11-dimethanobenzo[9]annulen-7-yl)urea]

IC50, 10 to 50 nM:
CC12CC3CC(NC(=O)NC4CCC(Oc5ccc(C(=O)O)cc5)CC4)(CC(C1)c1ccccc13)O2 (centres unmarked) [Example 43, 4-(((1r,4r)-4-(3-(5-methyl-1,5,6,7-tetrahydro-1,5:3,7-dimethanobenzo [e]oxonin-3(2H)-yl)ureido)cyclohexyl)oxy)benzoic acid]
CC(=O)N1CCC(NC(=O)NC23CC4CC(C)(CC(C2)c2cc(N)ccc24)C3)CC1 (centres unmarked) [Example 53, 1-(1-acetylpiperidin-4-yl)-3-(2-amino-9-methyl-5,6,8,9,10,11-hexa-hydro-7H-5,9:7,11-dimethanobenzo[9]annulen-7-yl)urea]
CC(C)S(=O)(=O)N1CCC(CC(=O)NC23CC4CC(C)(CC(C2)c2ccccc24)C3)CC1 [Example 56, 2-[1-(isopropylsulfonyl)piperidin-4-yl]-N-(9-methyl-5,6,8,9,10,11-hexahydro-7H-5,9:7,11-dimethanobenzo[9]annulen-7-yl)acetamide]
CC12CC3CC(NC(=O)Nc4ccc(F)c(F)c4F)(CC(C1)c1ccccc13)O2 [Example 59, 1-(5-methyl-1,5,6,7-tetrahydro-1,5:3,7-dimethanobenzo[e]oxonin-3(2H)-yl)-3-(2,3,4-trifluorophenyl)urea]
CC(=O)N1CCC(NC(=O)NC23CC4CC2CC(C3)c2ccccc24)CC1 [Example 72, 1-(1-acetylpiperidin-4-yl)-3-(5,8,9,10-tetrahydro-5,8:7,10-dimethano-benzo[8]annulen-7(6H)-yl)urea]
